Test results reported in PubChem BioAssay AID1963961 (Molecular Pharmacology Branch, DTP, NCI, 2024).

Test system: K98450-129-R-PDC multicell spheroids, viability
Assay: Anticancer human tumor K98450-129-R-PDC patient-derived colon adenocarcinoma cell line growth inhibition [PI3K]
Details: for IC50: curve of first compound; for viability, T/C: stronger effect = lower value
Description: Combinatorial screen of targeted agents with the PI3K inhibitors inavolisib, alpelisib, duvelisib, and copanlisib in multi-cell type tumor spheroids
A high-throughput screen of multi-cell type tumor spheroids was designed to identify active combinations of targeted small molecules and PI3K pathway inhibitors. Complex spheroids include a stromal component modeled by human endothelial cells (HUVEC) and fibroblasts modeled by human mesenchymal stem cells (MSCs). The concentration ranges selected for each drug and investigational agent were based upon clinically achievable concentrations if the clinical Cmax of the agent was known.
Compounds. The drugs and investigational agents: inavolisib (NSC800729), alpelisib (NSC765974), duvelisib (NSC772469), copanlisib (NSC816437), ipatasertib (NSC767898), afuresertib (NSC778305), talazoparib (NSC767125), sapanisertib (NSC764658), selumetinib (NSC741078), tovorafenib (DAY101, NSC766906), vemurafenib (NSC761431), ravoxertinib (NSC781343), sotorasib (NSC818433), MRTX1133 (NSC 836407), abemaciclib (NSC 768073), palbociclib (NSC758247), venetoclax (NSC 766270), SY5609 (NSC837396), enzalutamide (NSC755605), and darolutamide (NSC825331), were obtained from the National Cancer Institute (NCI) Developmental Therapeutics Program Chemical Repository. The FDA-approved anticancer drug set is available from the NCI Developmental Therapeutics Program. […] The stock solutions were prepared in dimethyl sulfoxide (DMSO, Sigma-Aldrich, St. Louis, MO, cat. D2650) at 800-fold the tested concentration and stored at -70 degrees C prior to their use. All drugs and investigational agents were tested over a range starting from a high concentration at or near the clinical Cmax and decreasing in half-log increments. If the clinical Cmax for an agent had not been determined, the highest concentration tested was 10 microM.
Cell Culture. All cells were maintained in an incubator at 37 degrees C and 5% CO2 with 95% humidity. The PDC lines were cultured according to standard operating procedures established by the NCI PDMR (https://pdmr.cancer.gov/sops/default.htm). All PDCs were thawed and cultured in Matrigel-coated flasks prepared with a working solution of 1X Ham's F-12 nutrient mix, without supplementation (Invitrogen, Waltham, MA, cat. 11765054), 100 U/mL penicillin-streptomycin (Invitrogen, cat. 15140122), and 2.5% Matrigel (Corning Inc., Corning, NY, cat. 354248) for the first three passages. The 354836-022-R-J1-PDC, 475296-252-R-J1-PDC, and 997726-040-R-J2-PDC lines were cultured in 6A media, which includes advanced DMEM/F-12 (Thermo Fisher Scientific, cat. 12634028), 10 mM HEPES (Thermo Fisher Scientific, cat. 15630080), 1X GlutaMAX supplement (Thermo Fisher Scientific, cat. 35050061), 0.1 mg/mL primocin (InvivoGen, San Diego, CA, cat. ant-pm-2), 10% defined fetal bovine serum, heat inactivated (HyClone Laboratories Inc., Logan, UT, cat. SH30070.03HI), 50% L-WRN conditioned media (ATCC, cat. CRL-3276), 1.25 mM N-Acetyl-L-cysteine (Sigma-Aldrich, cat. A9165), 10 mM nicotinamide (Sigma-Aldrich, cat. N0636), 1X B-27 supplement (Thermo Fisher Scientific, cat. 17504044), 1X N-2 supplement (Thermo Fisher Scientific, cat. 17502048), and 10 microM Y-27632 dihydrochloride (Tocris Bioscience, Bristol, United Kingdom, cat. 1254). The 624824-186-R-J2-PDC line was cultured in 6C/Colon 1B media, which includes all 6A media components plus 50 ng/mL human EGF recombinant protein (Thermo Fisher Scientific, cat. PHG0311). […]

[1] = second compound 0.00316 µM, first compound 0.0316 µM
[2] = second compound 0.00316 µM, first compound 0.1 µM
[3] = second compound 0.00316 µM, first compound 0.316 µM
[4] = second compound 0.00316 µM, first compound 1 µM
[5] = second compound 0.00316 µM, first compound 3.16 µM
[6] = second compound 0.00316 µM, first compound 10 µM
[7] = second compound 0.01 µM, first compound 0.0316 µM
[8] = second compound 0.01 µM, first compound 0.1 µM
[9] = second compound 0.01 µM, first compound 0.316 µM
[10] = second compound 0.01 µM, first compound 1 µM
[11] = second compound 0.01 µM, first compound 3.16 µM
[12] = second compound 0.01 µM, first compound 10 µM
[13] = second compound 0.0316 µM, first compound 0.0316 µM
[14] = second compound 0.0316 µM, first compound 0.1 µM
[15] = second compound 0.0316 µM, first compound 0.316 µM
[16] = second compound 0.0316 µM, first compound 1 µM
[17] = second compound 0.0316 µM, first compound 3.16 µM
[18] = second compound 0.0316 µM, first compound 10 µM
[19] = second compound 0.1 µM, first compound 0.0316 µM
[20] = second compound 0.1 µM, first compound 0.1 µM
[21] = second compound 0.1 µM, first compound 0.316 µM
[22] = second compound 0.1 µM, first compound 1 µM
[23] = second compound 0.1 µM, first compound 3.16 µM
[24] = second compound 0.1 µM, first compound 10 µM
[25] = second compound 0.316 µM, first compound 0.0316 µM
[26] = second compound 0.316 µM, first compound 0.1 µM
[27] = second compound 0.316 µM, first compound 0.316 µM
[28] = second compound 0.316 µM, first compound 1 µM
[29] = second compound 0.316 µM, first compound 3.16 µM
[30] = second compound 0.316 µM, first compound 10 µM
[31] = second compound 1 µM, first compound 0.0316 µM
[32] = second compound 1 µM, first compound 0.1 µM
[33] = second compound 1 µM, first compound 0.316 µM
[34] = second compound 1 µM, first compound 1 µM
[35] = second compound 1 µM, first compound 3.16 µM
[36] = second compound 1 µM, first compound 10 µM
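Note: spheroids exposed to agents for seven days before read-out.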

## C#Cc1c(F)ccc2cc(O)cc(-c3ncc4c(N5CC6CCC(C5)N6)nc(OCC56CCCN5CC(F)C6)nc4c3F)c12 (stereo not drawn) + CC(Nc1ccc2c(c1)OCCn1cc(N3C(=O)OCC3C(F)F)nc1-2)C(N)=O
Second compound 0.00316 µM
  IC50: > 10 µM
Second compound 0.01 µM
  IC50: > 10 µM
Second compound 0.0316 µM
  IC50: > 10 µM
Second compound 0.1 µM
  IC50: > 10 µM
Second compound 0.316 µM
  IC50: > 10 µM
Second compound 1 µM
  IC50: > 10 µM
[1]
  viability, T/C: 116%
[2]
  viability, T/C: 101%
[3]
  viability, T/C: 104%
[4]
  viability, T/C: 96.2%
[5]
  viability, T/C: 101%
[6]
  viability, T/C: 92.7%
[7]
  viability, T/C: 113%
[8]
  viability, T/C: 92.1%
[9]
  viability, T/C: 109%
[10]
  viability, T/C: 95.2%
[11]
  viability, T/C: 91.9%
[12]
  viability, T/C: 91.3%
[13]
  viability, T/C: 104%
[14]
  viability, T/C: 100%
[15]
  viability, T/C: 103%
[16]
  viability, T/C: 91.2%
[17]
  viability, T/C: 98.5%
[18]
  viability, T/C: 87.7%
[19]
  viability, T/C: 101%
[20]
  viability, T/C: 106%
[21]
  viability, T/C: 97%
[22]
  viability, T/C: 99.9%
[23]
  viability, T/C: 97.5%
[24]
  viability, T/C: 91.5%
[25]
  viability, T/C: 88.6%
[26]
  viability, T/C: 93%
[27]
  viability, T/C: 99.4%
[28]
  viability, T/C: 89.1%
[29]
  viability, T/C: 99.1%
[30]
  viability, T/C: 77.8%
[31]
  viability, T/C: 86%
[32]
  viability, T/C: 92.3%
[33]
  viability, T/C: 92.6%
[34]
  viability, T/C: 86.4%
[35]
  viability, T/C: 88.6%
[36]
  viability, T/C: 72.8%

## C=CC(=O)N1CCN(c2nc(=O)n(-c3c(C)ccnc3C(C)C)c3nc(-c4c(O)cccc4F)c(F)cc23)C(C)C1 (stereo not drawn) + CC(Nc1ccc2c(c1)OCCn1cc(N3C(=O)OCC3C(F)F)nc1-2)C(N)=O
Second compound 0.00316 µM
  IC50: 3.53 µM
Second compound 0.01 µM
  IC50: 3.98 µM
Second compound 0.0316 µM
  IC50: 3.99 µM
Second compound 0.1 µM
  IC50: 3.02 µM
Second compound 0.316 µM
  IC50: 2.2 µM
Second compound 1 µM
  IC50: 1.87 µM
[1]
  viability, T/C: 108%
[2]
  viability, T/C: 92.8%
[3]
  viability, T/C: 95.1%
[4]
  viability, T/C: 76.7%
[5]
  viability, T/C: 50.8%
[6]
  viability, T/C: 31.1%
[7]
  viability, T/C: 108%
[8]
  viability, T/C: 95.8%
[9]
  viability, T/C: 110%
[10]
  viability, T/C: 83.8%
[11]
  viability, T/C: 56.5%
[12]
  viability, T/C: 28.9%
[13]
  viability, T/C: 107%
[14]
  viability, T/C: 97.7%
[15]
  viability, T/C: 95.5%
[16]
  viability, T/C: 79.7%
[17]
  viability, T/C: 54.1%
[18]
  viability, T/C: 31%
[19]
  viability, T/C: 92.4%
[20]
  viability, T/C: 100%
[21]
  viability, T/C: 94.8%
[22]
  viability, T/C: 82.8%
[23]
  viability, T/C: 48.8%
[24]
  viability, T/C: 24.9%
[25]
  viability, T/C: 88.7%
[26]
  viability, T/C: 97.7%
[27]
  viability, T/C: 107%
[28]
  viability, T/C: 75.4%
[29]
  viability, T/C: 39.3%
[30]
  viability, T/C: 25.2%
[31]
  viability, T/C: 85.6%
[32]
  viability, T/C: 92.1%
[33]
  viability, T/C: 83.7%
[34]
  viability, T/C: 67%
[35]
  viability, T/C: 35.8%
[36]
  viability, T/C: 19%

## CC(Cn1ccc(-c2ccc(C#N)c(Cl)c2)n1)NC(=O)c1cc(C(C)O)[nH]n1 (stereo not drawn) + CC(Nc1ccc2c(c1)OCCn1cc(N3C(=O)OCC3C(F)F)nc1-2)C(N)=O
Second compound 0.00316 µM
  IC50: > 10 µM
Second compound 0.01 µM
  IC50: > 10 µM
Second compound 0.0316 µM
  IC50: > 10 µM
Second compound 0.1 µM
  IC50: > 10 µM
Second compound 0.316 µM
  IC50: > 10 µM
Second compound 1 µM
  IC50: > 10 µM
[1]
  viability, T/C: 111%
[2]
  viability, T/C: 99.6%
[3]
  viability, T/C: 105%
[4]
  viability, T/C: 101%
[5]
  viability, T/C: 105%
[6]
  viability, T/C: 106%
[7]
  viability, T/C: 113%
[8]
  viability, T/C: 98.6%
[9]
  viability, T/C: 102%
[10]
  viability, T/C: 98.4%
[11]
  viability, T/C: 101%
[12]
  viability, T/C: 111%
[13]
  viability, T/C: 102%
[14]
  viability, T/C: 109%
[15]
  viability, T/C: 101%
[16]
  viability, T/C: 96.2%
[17]
  viability, T/C: 101%
[18]
  viability, T/C: 102%
[19]
  viability, T/C: 98.2%
[20]
  viability, T/C: 100%
[21]
  viability, T/C: 103%
[22]
  viability, T/C: 95.2%
[23]
  viability, T/C: 109%
[24]
  viability, T/C: 95%
[25]
  viability, T/C: 92.6%
[26]
  viability, T/C: 98%
[27]
  viability, T/C: 97.7%
[28]
  viability, T/C: 94.1%
[29]
  viability, T/C: 104%
[30]
  viability, T/C: 91.9%
[31]
  viability, T/C: 87.7%
[32]
  viability, T/C: 91.6%
[33]
  viability, T/C: 91.7%
[34]
  viability, T/C: 86.2%
[35]
  viability, T/C: 90.4%
[36]
  viability, T/C: 92.3%

## Cn1nccc1Nc1nccc(-c2ccn(C(CO)c3ccc(Cl)c(F)c3)c(=O)c2)n1 (stereo not drawn) + CC(Nc1ccc2c(c1)OCCn1cc(N3C(=O)OCC3C(F)F)nc1-2)C(N)=O
Second compound 0.00316 µM
  IC50: > 10 µM
Second compound 0.01 µM
  IC50: > 10 µM
Second compound 0.0316 µM
  IC50: > 10 µM
Second compound 0.1 µM
  IC50: > 10 µM
Second compound 0.316 µM
  IC50: > 10 µM
Second compound 1 µM
  IC50: > 10 µM
[1]
  viability, T/C: 109%
[2]
  viability, T/C: 96.3%
[3]
  viability, T/C: 107%
[4]
  viability, T/C: 99.2%
[5]
  viability, T/C: 101%
[6]
  viability, T/C: 94.2%
[7]
  viability, T/C: 108%
[8]
  viability, T/C: 97.5%
[9]
  viability, T/C: 99.1%
[10]
  viability, T/C: 94.7%
[11]
  viability, T/C: 98.8%
[12]
  viability, T/C: 88.7%
[13]
  viability, T/C: 103%
[14]
  viability, T/C: 103%
[15]
  viability, T/C: 96.5%
[16]
  viability, T/C: 94.4%
[17]
  viability, T/C: 99.2%
[18]
  viability, T/C: 91%
[19]
  viability, T/C: 95.5%
[20]
  viability, T/C: 98.5%
[21]
  viability, T/C: 98.2%
[22]
  viability, T/C: 93.1%
[23]
  viability, T/C: 98.9%
[24]
  viability, T/C: 88.7%
[25]
  viability, T/C: 91.5%
[26]
  viability, T/C: 90.7%
[27]
  viability, T/C: 101%
[28]
  viability, T/C: 96.2%
[29]
  viability, T/C: 99.4%
[30]
  viability, T/C: 87.4%
[31]
  viability, T/C: 83.6%
[32]
  viability, T/C: 84.4%
[33]
  viability, T/C: 91%
[34]
  viability, T/C: 87.7%
[35]
  viability, T/C: 90.9%
[36]
  viability, T/C: 82.2%
